Assay results: patent US20240270762A1, “PENICILLIN-BINDING PROTEIN INHIBITORS” (priority 2021, published 2024)
pIC50: −log10 of the molar value. In brackets after ≈: the same amount, converted by molar mass.

Legend:
P. aeruginosa CDC-0095 = assay: microbe, parasite or virus in culture; assay type: cell-based; conditions: Pseudomonas aeruginosa, CDC0095, read-out: Minimum inhibitory concentration, P. aeruginosa CDC-0095
[1] = biological target: T1, PBP3 from Acinetobacter baumannii (ATCC 19606) (Acinetobacter baumannii, UniProt A0ABX6CK25); assay: Bocillin-FL fluorescence polarization competition binding, A. baumannii PBP3; conditions: fluorescence polarization competition binding assay using Bocillin-FL; read-out: A. baumannii PBP3 Potency
T1 sequence (A0ABX6CK25 64-610): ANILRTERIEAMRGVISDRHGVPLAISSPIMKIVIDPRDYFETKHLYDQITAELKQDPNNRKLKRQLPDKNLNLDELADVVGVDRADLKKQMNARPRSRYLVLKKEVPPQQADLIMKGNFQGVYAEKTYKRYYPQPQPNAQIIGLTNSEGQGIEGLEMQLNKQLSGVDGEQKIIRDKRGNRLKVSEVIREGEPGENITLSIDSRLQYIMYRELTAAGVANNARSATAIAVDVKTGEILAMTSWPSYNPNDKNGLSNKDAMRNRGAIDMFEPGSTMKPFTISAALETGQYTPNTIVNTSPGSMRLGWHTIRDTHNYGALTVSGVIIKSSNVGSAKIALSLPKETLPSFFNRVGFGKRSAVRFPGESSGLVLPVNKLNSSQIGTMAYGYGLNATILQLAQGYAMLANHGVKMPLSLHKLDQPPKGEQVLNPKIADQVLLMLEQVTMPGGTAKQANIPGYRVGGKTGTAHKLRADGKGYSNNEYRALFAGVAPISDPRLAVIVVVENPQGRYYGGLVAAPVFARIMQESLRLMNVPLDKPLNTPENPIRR
In short: (§1)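 Purified PBP was preincubated with inhibitor (E. coli PBP3 1.5 μM, 30 min; P. aeruginosa PBP3 0.75 μM, A. baumannii PBP3 0.2 μM and PBP1a 1 μM, 15 min), then Bocillin-FL (0.1 μM; 0.05 μM for PBP1a) added and FP read up to 60 min. EC50 = 50% loss of bound probe.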

P. aeruginosa CDC-0054 = assay: microbe, parasite or virus in culture; assay type: cell-based; conditions: Pseudomonas aeruginosa, CDC0054, read-out: Minimum inhibitory concentration, P. aeruginosa CDC-0054
A. baumannii 1258916 = assay: microbe, parasite or virus in culture; assay type: cell-based, Acinetobacter baumannii; conditions: Acinetobacter baumannii, 1258916, read-out: MIC, A. baumannii 1258916
P. aeruginosa CDC-0090 = assay: microbe, parasite or virus in culture; assay type: cell-based; conditions: Pseudomonas aeruginosa, CDC0090, read-out: Minimum inhibitory concentration, P. aeruginosa CDC-0090
A. baumannii ATCC 17978 = assay: microbe, parasite or virus in culture; assay type: cell-based; conditions: Acinetobacter baumannii, ATCC17978, read-out: MIC, A. baumannii ATCC 17978
A. baumannii ATCC 19606 = assay: microbe, parasite or virus in culture; assay type: cell-based; conditions: Acinetobacter baumannii, ATCC19606, read-out: MIC, A. baumannii ATCC 19606
[2] = biological target: T2, PBP3 from Pseudomonas aeruginosa (PAO1) (Pseudomonas aeruginosa, UniProt G3XD46); assay: Bocillin-FL fluorescence polarization competition binding, P. aeruginosa PBP3; conditions: Binding affinity to P. aeruginosa PBP3; fluorescence polarization competition binding assay using Bocillin-FL; read-out: P. aeruginosa PBP3 Potency
T2 construct: made in house
In short: as §1

T2 sequence (G3XD46 whole entry): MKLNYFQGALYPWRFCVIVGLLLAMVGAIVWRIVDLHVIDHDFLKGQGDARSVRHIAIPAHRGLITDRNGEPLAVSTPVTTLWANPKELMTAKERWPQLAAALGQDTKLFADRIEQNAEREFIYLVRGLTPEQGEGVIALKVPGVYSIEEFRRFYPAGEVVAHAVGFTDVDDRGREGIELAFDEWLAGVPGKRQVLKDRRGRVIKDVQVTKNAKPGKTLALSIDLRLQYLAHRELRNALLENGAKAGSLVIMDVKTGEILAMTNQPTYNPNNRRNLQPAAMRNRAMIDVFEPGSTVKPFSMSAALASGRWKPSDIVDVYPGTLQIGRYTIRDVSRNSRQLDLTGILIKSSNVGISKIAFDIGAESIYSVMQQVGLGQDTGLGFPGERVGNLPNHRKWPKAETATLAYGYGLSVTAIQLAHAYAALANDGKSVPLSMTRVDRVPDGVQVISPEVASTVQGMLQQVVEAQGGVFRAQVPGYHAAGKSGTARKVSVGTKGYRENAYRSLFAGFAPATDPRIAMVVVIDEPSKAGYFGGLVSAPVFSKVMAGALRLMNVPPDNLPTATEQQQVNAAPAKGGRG

O=C(O)c1c(F)ccc2c1OB(O)[C@@H](NC(=O)C(NC(=O)N1CCN(C3CCN(C(=O)Nc4cc(O)ccc4F)CC3)C(=O)C1=O)c1cc(F)c(O)c(O)c1Cl)C2 (stereo partly drawn) [Example 479, (3R)-3-(2-(2-chloro-5-fluoro-3,4-dihydroxyphenyl)-2-(4-(1-((2-fluoro-5-hydroxyphenyl)carbamoyl)piperidin-4-yl)-2,3-dioxopiperazine-1-carboxamido)acetamido)-7-fluoro-2-hydroxy-3,4-dihydro-2H-benzo[e][1,2]oxaborinine-8-carboxylic acid]
MIC (P. aeruginosa CDC-0095): < 1 µg/mL
pIC50 [1]: > 5.00
MIC (P. aeruginosa CDC-0054): < 1 µg/mL
MIC (A. baumannii 1258916): < 1 µg/mL
MIC (P. aeruginosa CDC-0090): 2 to 4 µg/mL (≈ 2.44 to 4.88 µM)
MIC (A. baumannii ATCC 17978): < 1 µg/mL
MIC (A. baumannii ATCC 19606): < 1 µg/mL
pIC50 [2]: > 5.00

O=C(O)c1c(F)ccc2c1OB(O)[C@@H](NC(=O)C(NC(=O)N1CCN(C3CCN(C(=O)Nc4ccc(F)c(O)c4)CC3)C(=O)C1=O)c1cc(F)c(O)c(O)c1Cl)C2 (stereo partly drawn) [Example 480, (3R)-3-(2-(2-chloro-5-fluoro-3,4-dihydroxyphenyl)-2-(4-(1-((4-fluoro-3-hydroxyphenyl)carbamoyl)piperidin-4-yl)-2,3-dioxopiperazine-1-carboxamido)acetamido)-7-fluoro-2-hydroxy-3,4-dihydro-2H-benzo[e][1,2]oxaborinine-8-carboxylic acid]
MIC (P. aeruginosa CDC-0095): < 1 µg/mL
pIC50 [1]: > 5.00
MIC (P. aeruginosa CDC-0054): < 1 µg/mL
MIC (A. baumannii 1258916): < 1 µg/mL
MIC (P. aeruginosa CDC-0090): 2 to 4 µg/mL (≈ 2.44 to 4.88 µM)
MIC (A. baumannii ATCC 17978): < 1 µg/mL
MIC (A. baumannii ATCC 19606): < 1 µg/mL
pIC50 [2]: > 5.00

O=C(O)c1c(F)ccc2c1OB(O)[C@@H](NC(=O)C(NC(=O)N1CCN(C3CCN(C(=O)Nc4cc(O)cc(F)c4)CC3)C(=O)C1=O)c1cc(F)c(O)c(O)c1Cl)C2 (stereo partly drawn) [Example 481, (3R)-3-(2-(2-chloro-5-fluoro-3,4-dihydroxyphenyl)-2-(4-(1-((3-fluoro-5-hydroxyphenyl)carbamoyl)piperidin-4-yl)-2,3-dioxopiperazine-1-carboxamido)acetamido)-7-fluoro-2-hydroxy-3,4-dihydro-2H-benzo[e][1,2]oxaborinine-8-carboxylic acid]
MIC (P. aeruginosa CDC-0095): < 1 µg/mL
pIC50 [1]: > 5.00
MIC (P. aeruginosa CDC-0054): < 1 µg/mL
MIC (A. baumannii 1258916): < 1 µg/mL
MIC (P. aeruginosa CDC-0090): 2 to 4 µg/mL (≈ 2.44 to 4.88 µM)
MIC (A. baumannii ATCC 17978): < 1 µg/mL
MIC (A. baumannii ATCC 19606): < 1 µg/mL
pIC50 [2]: > 5.00

O=C(O)c1c(F)ccc2c1OB(O)[C@@H](NC(=O)[C@H](NC(=O)N1CCN(C3CCN(C(=O)Nc4cccc(O)c4Cl)CC3)C(=O)C1=O)c1cc(F)c(O)c(O)c1Cl)C2 [Example 482, (R)-3-((R)-2-(4-(1-((2-chloro-3-hydroxyphenyl)carbamoyl)piperidin-4-yl)-2,3-dioxopiperazine-1-carboxamido)-2-(2-chloro-5-fluoro-3,4-dihydroxyphenyl)acetamido)-7-fluoro-2-hydroxy-3,4-dihydro-2H-benzo[e][1,2]oxaborinine-8-carboxylic acid]
MIC (P. aeruginosa CDC-0095): < 1 µg/mL
pIC50 [1]: > 5.00
MIC (P. aeruginosa CDC-0054): < 1 µg/mL
MIC (A. baumannii 1258916): < 1 µg/mL
MIC (P. aeruginosa CDC-0090): 2 to 4 µg/mL (≈ 2.39 to 4.79 µM)
MIC (A. baumannii ATCC 17978): < 1 µg/mL
MIC (A. baumannii ATCC 19606): < 1 µg/mL
pIC50 [2]: > 5.00

O=C(O)c1c(F)ccc2c1OB(O)[C@@H](NC(=O)C(NC(=O)N1CCN(C3CCN(C(=O)Nc4cc(O)ccc4Cl)CC3)C(=O)C1=O)c1cc(F)c(O)c(O)c1Cl)C2 (stereo partly drawn) [Example 483, (3R)-3-(2-(2-chloro-5-fluoro-3,4-dihydroxyphenyl)-2-(4-(1-((2-chloro-5-hydroxyphenyl)carbamoyl)piperidin-4-yl)-2,3-dioxopiperazine-1-carboxamido)acetamido)-7-fluoro-2-hydroxy-3,4-dihydro-2H-benzo[e][1,2]oxaborinine-8-carboxylic acid]
MIC (P. aeruginosa CDC-0095): 2 to 4 µg/mL (≈ 2.39 to 4.79 µM)
pIC50 [1]: > 5.00
MIC (P. aeruginosa CDC-0054): 2 to 4 µg/mL (≈ 2.39 to 4.79 µM)
MIC (A. baumannii 1258916): < 1 µg/mL
MIC (P. aeruginosa CDC-0090): 2 to 4 µg/mL (≈ 2.39 to 4.79 µM)
MIC (A. baumannii ATCC 17978): < 1 µg/mL
MIC (A. baumannii ATCC 19606): < 1 µg/mL
pIC50 [2]: > 5.00
